Measured values published in patent US6136336A, “JM216 formulations” (priority 1999, dated 2000).
“Also recorded” adds a separate entry of the source.

Tests used:
[1] = Water-solubility of JM216 at 23° C.; assay type: physicochemical
Text: Although the oral dosage form of JM216 being pursued in the clinic has obvious advantages over injectable platinum complexes such as cisplatin and carboplatin, it is reported by M. J. McKeage et al in Cancer Chemother. Pharmacol. 36: 451-458 (1995) that the current oral capsule form may have certain pharmacokinetic disadvantages.

[2] = Standard dissolution test (phosphate buffer pH 7.5, 37° C.); assay type: physicochemical; conditions: phosphate buffer 1/15 M
Text: The present inventors first attempted to reduce the particle size of the JM216 powder obtained from chemical synthesis by grinding or milling it to an amorphous state (as confirmed by x-ray diffraction pattern). The amorphous state indicates the disappearance of particles or crystalline drug and a particle size close to the molecular level. […] The addition of β-cyclodextrin or polymers to the JM216 during the grinding did allow obtaining the drug as an amorphous powder by reduction of the aggregation. […] The ratio of drug:β-cyclodextrin or drug:polymer also has some effect on solubility, with solubility generally increasing at higher β-cyclodextrin:drug or polymer:drug ratios. Ratios of drug:β-cyclodextrin or drug:polymer of from about 1:1 to about 1:15 (w/w) can be used with ratios of from about 1:4 to 1:15 being preferred and ratios of from about 1:9 to about 1:15 being most preferred.
Dissolution test: The ground mixture containing 5 mg. of JM216 was transferred directly into 50 ml of phosphate buffer (1/15 M, pH 7.5) kept at 37° C. and was stirred with a magnetic stirrer bar at 300 rpm. An aliquot of the solution was pipetted at the indicated time intervals and filtered through a 0.45 μm membrane filter. The concentration of the dissolved JM216 was determined by high performance liquid chromatography (HPLC).
Grinding of the JM216:β-cyclodextrin or JM216:polymer mixtures may be accomplished by standard procedures, e.g. automatic mortar and pestle machines or a hybridizer (milling machine). The time needed in the grinding process may be readily determined by simple test (period analysis of the mixture by x-ray diffraction studies). A suitable grinding time with the automatic mortar and pestle machine is three hours and with the hybridizer, five minutes.

[3] = In vitro drug absorption through excised rat rectum (Franz diffusion cell); assay type: in vitro ADME; conditions: listed as JM216 bulk drug (non-amorphous)
Description: The rectum was freshly excised from each rat and was opened lengthwise using scissors. The excised rectum, serous membrane side down, was mounted on a Franz diffusion cell (reservoir volume 10 ml, 7 mm i.d. O ring flange). […] Gentamicin solution (10 mg/ml) was added to the reservoir fluid (phosphate buffer, pH 7.3) in the ratio of 1:100.
The various test samples were incorporated into standard suppository bases and then subjected to the in vitro drug absorption test. […] The suppository samples were prepared by fusion method melting the base at 50° C. for fatty bases or at 75° C. for polyethylene glycol water-soluble base. The drug was incorporated into the base at a concentration of 2 mg/80 mg base. Medium chain fatty acids (or Na salts thereof) and surface active agents were also added at the appropriate level.

[4] = cited from earlier work
[5] = oral capsule, dose levels ≥200 mg/m^2

In the case of `CC(=O)[O][Pt]([NH2])([Cl])([Cl])([NH]C1CCCCC1)[O]C(C)=O` [JM216, bis-acetato-ammine-dichloro-cyclohexylamine-platinum (IV)], the water-solubility [1] is reported as 300 µg/mL, the “Dissolved JM216” value ([2]; 1 Min.) is reported as 0.2 mg/mL and the “Dissolved JM216” value ([2]; 5 Min.) is reported as 0.3 mg/mL. For the same compound, the “Dissolved JM216” value ([2]; 15 Min.) was 0.5 mg/mL, the “Dissolved JM216” value ([2]; 30 Min.) was 0.5 mg/mL and the “Dissolved JM216” value ([2]; 60 Min.) was 0.5 mg/mL. The “absorption in the rat rectum model (in words)” value [3] was “little absorbed in the form of a suspension in water or in fatty suppository bases; also recorded: absorbed to some extent when incorporated into the water-soluble base, polyethylene glycol (PEG)”, the “AUC (dose proportionality)” value [4, 5] was “increased less than proportionally to dose” and the “Cmax (dose proportionality)” value [4, 5] was “increased less than proportionally to dose”. The interpatient pharmacokinetic variation [4, 5] was “greater interpatient pharmacokinetic variation”, the urinary platinum recovery [4, 5] was “reduced urinary platinum recovery” and the “side effects seen with oral dosing” value ([4]; oral dosing) was “nausea and vomitting”.
